According to patent US20190167711A1, “METHODS FOR DIAGNOSIS AND TREATMENT OF ACUTE LYMPHOBLASTIC LEUKEMIA” (MOR RESEARCH APPLICATIONS LTD., priority 2014, published 2019):

Assays:
[1] = test system: NAMPT; assay: NAMPT expression after TPA treatment; format: cell-based; settings: 50 ng/ml for 24 hours, human peripheral blood cells, FACS
Method: Studies by several investigators have shown that 12-0-tetradecanoylphorbol-13-acetate (TPA) (Sigma) is an extraordinarily potent tumor promoter and stimulates protein kinase C (PKC). Since NAMPT is over-expressed in several tumors, it was believed that it might be possible to achieve NAMPT stimulation by TPA treatment. To test this hypothesis, human peripheral blood cells were treated with 50 ng/ml TPA for 24 hours, and NAMPT expression was measured by FACS using a specific NAMPT antibody.

[2] = test system: NAD^+ levels; assay: NAD assay in TPA stimulated cells; format: cell-based, human
Method: (§1) The NAD^+/NADH ratio was measured in whole-cell extracts of NALM-6 cells using the Biovision NAD^+/NADH Quantification Colorimetric™ Kit (BioVision, San Francisco, Calif., USA) (also referred to herein as “NAD assay”) according to the manufacturer's protocol (see, for example, https://www.biovision.com/documentation/datasheets/K337.pdf). The NAD Cycling Enzyme Mix in the kit specifically recognizes NADH/NAD^+ in an enzyme cycling reaction. After 4 hrs, the plate was read at optical density (OD) 450 nm. The readings were normalized to the cell number and the NAD^+/NADH ratio was calculated as: (total NAD^+−NADH)/NADH.
NAMPT is the rate-limiting enzyme in the NAD^+ biosynthetic pathway. Thus, NAD^+ levels in the stimulated cells were measured using a standard NAD assay (BioVision NADH/NAD^+ Quantification Colorimetric™ Kit).

[3] = test system: Nalm-6 cells; assay: XTT cell viability assay in Nalm-6 cells; format: cell-based; settings: 1 nM for 48 hours, Nalm-6 cells, XTT
Method: Cell viability assay was performed using the Cell Proliferation Kit comprising the second-generation tetrazolium dye, XTT. Viable cells with active metabolism convert XTT into an orange colored reduction product, whereas dead cells lose the ability to reduce XTT, thus, color formation serves as a useful and convenient marker of only the viable cells.
The XTT kit was applied to NALM6 transfected cells according to the manufacturer's protocol (Biological Industries, Kibbutz Beit Haemek, Israel). Cells were incubated for 3 hours with the XTT reagent and quantity of reduced XTT (directly proportional to the number of viable cells) was assessed by recording changes in absorbance as measured on a microplate reader at 450-500 nm optical density (OD).
(§2) To measure the effect of NAD^+ depletion following FK866 treatment of Nalm-6 cells, apoptosis and viability were measured as described in Materials and Methods. Nalm-6 cells were treated for 48 hours with 1 nM FK866, and then apoptosis was measured using FACS.

[4] = test system: NALM-6/antagomiR-451; assay: FK866 in xenograft of NALM-6/antagomiR-451 stable line; format: in vivo, NSG™ mice
Method: (§3) miR-451 precursor and antagomiR-451 expression clones were obtained from GeneCopoeia™ (GeneCopoeia, Rockville, Md., USA). Stable cell lines were prepared by the Tel Aviv University's Vector Core Facility by transduction of ALL cell line (NALM-6) with lentiviral particles co-encoding miR-451 precursor or antagomiR-451, the ORF for EGFP/mCherry and puromycin-resistance, under the control of individual CMV promoters. The ORFs and the miR-451 precursor/antagomiR-451 oligonucleotide sequences were incorporated into the pLL3.7 3rd generation lentiviral vector. […]
(§4) Ten million ALL NALM-6 cells in 100 μl saline were injected subcutaneously, above the femur, to 6-8 weeks-old NSG™ mice (NSG™ mouse model variants are the most highly immunodeficient mice and therefore were chosen as models for cancer xenograft modelling). […] The volume of tumors was measured daily until mice were sacrificed. Tumor volume was monitored using vernier caliper measurements and calculated using the formula π(length)(width)^2/6. […]
(§5) In order to assess a possible association or correlation between miR-451 expression levels and sensitivity to in-vivo treatment of ALL with a NAMPT inhibitor, the effect of the NAMPT inhibitor FK866 was assessed in the presence of elevated levels or lowered levels of miR-451 in ALL xenograft mouse model. […] Tumors volume was measured daily.

[5] = test system: Nalm-6 cells; assay: Annexin V-FITC apoptosis assay in Nalm-6 cells; format: cell-based; settings: 1 nM for 48 hours, Nalm-6 cells, FACS
Source text: Cells were stained with annexin V-fluorescein-5-isothiocyanate (FITC) conjugated antibody and propidium iodide (PI) using the Annexin V-FITC Apoptosis Detection Kit (ab14085, Abcam® Incorporated, Cambridge, Mass., USA) according to manufacturer's instructions (see, for example, https://www.abcam.com/ps/products/14/ab14085/documents/ab14085%20Annexin %20V%20FITC%20Apoptosis%20Detection%20Kit%20v4%20(website).pdf), and read on the flow cytometer. Annexin V Apoptosis Detection Kit is based on the observation that soon after initiating apoptosis, cells translocate the membrane phosphatidylserine (PS) from the inner face of the plasma membrane to the cell surface. Once on the cell surface, PS can be easily detected by staining with a fluorescent conjugate (e.g., FITC) of Annexin V, a protein that has a high affinity for PS. The one-step staining procedure takes only 10 minutes. When performing both Annexin V-FITC and PI staining, it is possible to differentiate apoptosis vs necrosis.
as §2

[6] = test system: NAD^+ formation in Nalm-6 cell line; assay: NAD^+/NADH assay in Nalm-6 cells treated with FK866; format: cell-based
Method: as §1
Nalm-6 cells were treated for 1, 3, and 6 hours with 1 nM FK866 (Sigma) and NAD^+ formation was measured using NAD assay as described in Materials and Methods.
The sensitivity of NALM-6 cells to the NAMPT inhibitor FK866 was measured in cells following transfection with miR-451 mimic (SEQ ID NO: 2), miR-451 inhibitor (miArrest™ miR-451 expression clone; GeneCopoeia™), or scrambled miR. Sensitivity was assessed by measuring the levels of NAD^+. […] Thus, miR-451 expression can distinguish between patients that could benefit from treatment with NAMPT inhibitors such as FK866.

[7] = test system: NALM-6/miR-451 mimic; assay: FK866 in xenograft of NALM-6/miR-451 mimic stable line; format: in vivo, NSG™ mice
Method: as §3, §4, §5

[8] = Phase I, patients with advanced cancers; cited from earlier work
[9] = test system: ALL NALM-6 cells; assay: FK866 in ALL xenograft mouse model; format: in vivo, NSG™ mice
Method: Ten million ALL NALM-6 cells in 100 μl saline were injected subcutaneously, above the femur, to 6-8 weeks-old NSG™ mice (NSG™ mouse model variants are the most highly immunodeficient mice and therefore were chosen as models for cancer xenograft modelling). Tumors were clinically evident 15-28 days following injection in more than 85% of the mice (n=175). Mice were divided into groups receiving either FK866 or vehicle treatment. Mice in the treatment group received FK866 in 0.9% saline intraperitoneally at a dose of 15 mg/Kg daily for 5 days. Vehicle in the control group was injected intraperitoneally once a day for 5 days repeated weekly. The volume of tumors was measured daily until mice were sacrificed. Tumor volume was monitored using vernier caliper measurements and calculated using the formula π(length)(width)^2/6. Each experiment was ended when tumor size reached 12×12 mm^3. All animal experiments were performed under an approved animal study protocol.
Following the in vitro studies described in Example 4 herein, the sensitivity of ALL tumor growth to a NAMPT inhibitor was tested in-vivo in an ALL xenograft mouse model. The NAMPT inhibitor tested was the known small molecule FK866. The effect of FK866 was tested in the ALL xenograft mouse model in 4 independent experiments each performed on a group of 82 NSG™ mice as follows: 41 mice were treated with FK866 (15 mg/kg) once a day for 5 days repeated weekly, and 41 mice served as controls (i.e., were not treated with FK866 and received saline instead).
Mice were treated from the day tumors were clinically evident in all mice (day 25), and tumors volume was measured daily.

[10] = test system: phospho-STAT protein; assay: Phospho-STAT levels by FACS after miR-1290 mimic transfection; format: cell-based; settings: NALM-6 cell line transfected
Method: Phosphorylated STAT (phospho-STAT, activated by JAK) levels were measured by FACS analysis following transfection of miR-1290 mimic (overexpression) into NALM-6 cell line. An increase of 50% in the levels of phospho-STAT protein was evident in the cells expressing high levels of miR-1290 (FIG. 11).

## CCCCCCCCCCCCCC(=O)O[C@@H]1[C@@H](C)[C@@]2(O)[C@@H](C=C(CO)C[C@]3(O)C(=O)C(C)=C[C@@H]23)[C@@H]2C(C)(C)[C@]12OC(C)=O [TPA, 12-O-tetradecanoylphorbol-13-acetate]
[1]
  increase in NAMPT expression levels: more than 4 folds
[2]
  cellular NAD^+ levels, fold higher: 2 fold

## O=C(/C=C/c1cccnc1)NCCCCC1CCN(C(=O)c2ccccc2)CC1 [FK866]
[3]
  cell viability: significant decrease in cell viability
[4]; NALM-6/antagomiR-451 mice
  tumor growth/volume change treated vs un-treated: significant difference in tumor growth/volume change
[4]; antagomiR-451 group, FK866 15 mg/kg
  mean tumor volume at the end of experiments: 117±81 mm^3
[5]
  apoptosis level: significantly increased apoptosis level
[6]; 1 nM for 1, 3 and 6 hours, Nalm-6 cells
  NAD^+ detection following treatment: gradual decrease in NAD^+ detection
[6]; Nalm-6/miR-451 inhibitor cells
  change in NAD^+ production after FK866 treatment compared to control: more than 5 fold
[6]; Nalm-6/miR-451 mimic cells
  change in NAD^+ production after FK866 treatment compared to control: less change in NAD^+ production
[7]; NALM-6/miR-451 mimic mice
  tumor growth/volume change treated vs untreated: Only a moderate difference in tumor growth/volume change
[7]; miR-451 mimic group, FK866 15 mg/kg
  mean tumor volume at the end of experiments: 544±64 mm^3
[8]
  tolerability and safety: well tolerated and safe
[9]; 15 mg/kg daily, day 32
  mean tumor volume at the end of experiment: 300.36±63.67 mm^3
[9]; 15 mg/kg daily, day 32 vs day 25
  tumor growth increase: less than 150%
[9]; within 4 days of treatment (day 29)
  volume change treated vs non-treated group: tumor growth inhibition

## miR-1290 mimic: synthetic miR-1290 mimic, SEQ ID NO:4, for over-expression of miR-1290 (UGGAUUUUUGGAUCACCUGAUCCAAAAAU; listed as RNA, chemistry not given here)
[10]
  increase in the levels of phospho-STAT protein: 50%
